We go through 3 compounds from the NIST ThermoML archive (doi:10.1016/j.tca.2013.02.006).

± gives the expanded uncertainty stated by the source.

The conditions of data set [1]: 101.33 kPa, Liquid, Vibrating tube method.
The nature of data set [2]: refractive index (Na D-line) (dimensionless). The note with it: 298.2 K; 101.33 kPa; Liquid; Standard Abbe refractometry.

What is called mass density is mass per unit of volume. The refractive index is the speed of light in vacuum divided by its phase velocity in the sample. In the case of `CCCCCCCCCCCCS` [1-dodecanethiol], the mass density in data set [1] (293.2 K) stood at 843.94 ± 0.24 kg/m3. In data set [2], the refractive index is reported as 1.4586 ± 0.0008.
Regarding `CCCCCCCCCCO` [decan-1-ol], the mass density in data set [1] (298.2 K) is 826.48 ± 0.24 kg/m3. In addition, the refractive index in data set [2] was determined as 1.4349 ± 0.0008.
`CCCCCCCCCCCCO` [dodecan-1-ol]: the mass density in data set [1] (298.2 K) came out at 829.76 ± 0.24 kg/m3. Further, the refractive index in data set [2] came out at 1.4412 ± 0.0008.
